Broadly, the IC50 is the concentration that inhibits the measured activity by half. Low values mean greater potency in that assay, high ones weaker potency in that assay. The term EC50 denotes the concentration giving half of the maximal effect.

The values below come from BindingDB's records for doi:10.1126/science.abf1611 (Sichuan University, 2021).

Test [1] has as its target T1, Replicase polyprotein 1ab (Severe acute respiratory syndrome coronavirus 2, UniProt P0DTD1). In words: The enzymatic inhibition assay.
Experimental: The enzymatic inhibition assay was carried out with a final concentration of 100 nM recombinant SARS-CoV-2 Mpro and 20 μM FRET substrate. […] The initial velocities were calculated from the first 1 min of each reaction curve. The IC50 values were calculated using a dose-response model in GraphPad Prism 8.0 software. All experiments were performed in triplicate, and the values are presented as mean ± standard deviation (SD).
Test [2] concerns the target T1, Replicase polyprotein 1ab.
Test [3] has as its target T1, Replicase polyprotein 1ab. The test can be described thus: scanning fluorimetry assay of HPAEpiC cells.
Experimental: The differential scanning fluorimetry (DSF) assay was carried out on a CFX96 real-time PCR Detection System (Bio-Rad). […] The Mpro protein (final concentration: 2 μM) was pre-incubated with 40 μM of compounds for 30 min. […] The melt temperature (Tm) was calculated by using a Boltzmann model in GraphPad Prism 8.0 software. The thermal shift (ΔTm) was calculated using the equation ΔTm=Tm(compound)-Tm(DMSO). All experiments were performed in triplicate, and the values are presented as mean ± SD. HPAEpiC cells are used.

Several values for one entry are separate records, joined by “and”; a condition that tells them apart may be missing. Equal entries are not always repeated.

On to `CC1(C)[C@@H]2[C@H](C(=O)N[C@H](C=O)C[C@@H]3CCNC3=O)N(C(=O)COc3ccc4ccccc4c3)C[C@@H]21` [11b], for which, in test [1], the IC50 was 52 nM and 27 nM. This molecule also came in with an EC50 in test [2] of 75 nM.

The molecule `CC1(C)[C@@H]2[C@H](C(=O)N[C@H](C=O)C[C@@H]3CCNC3=O)N(C(=O)c3ccc4ccccc4c3)C[C@@H]21` [MI-01] came in with an IC50 in test [1] of 453 nM.

With `CC1(C)[C@@H]2[C@H](C(=O)N[C@H](C=O)C[C@@H]3CCNC3=O)N(C(=O)CCc3cccc(F)c3)C[C@@H]21` [MI-03], in test [1], the IC50 is 17 nM. Compared with the last molecule, the IC50 is about 27-fold lower.

For `CC1(C)[C@@H]2[C@H](C(=O)N[C@H](C=O)C[C@@H]3CCNC3=O)N(C(=O)COc3cc(F)cc(F)c3)C[C@@H]21` [MI-04], the 50% inhibitory concentration (IC50) in test [1] stood at 19 nM.

Consider `CC1(C)[C@@H]2[C@H](C(=O)N[C@H](C=O)C[C@@H]3CCNC3=O)N(C(=O)COc3ccc(F)c(F)c3)C[C@@H]21` [MI-05], for which the IC50 in test [1] came to 13 nM. The IC50 values of the last two molecules are within 1.5-fold of each other.

For the molecule `COc1ccc(OCC(=O)N2C[C@H]3[C@@H]([C@@H]2C(=O)N[C@H](C=O)C[C@@H]2CCNC2=O)C3(C)C)cc1OC` [MI-06], in test [1], the IC50 was found to be 15 nM.

In test [1], `CC1(C)[C@@H]2[C@H](C(=O)N[C@H](C=O)C[C@@H]3CCNC3=O)N(C(=O)COc3ccc(C(F)(F)F)cc3)C[C@@H]21` [MI-07] returned an IC50 of 43 nM. Compared with the last molecule, the IC50 is about 2.9-fold higher.

Take `COc1ccc(OCC(=O)N2C[C@H]3[C@@H]([C@@H]2C(=O)N[C@H](C=O)C[C@@H]2CCNC2=O)C3(C)C)cc1F` [MI-08]: inhibition in test [1] was half-maximal at 37 nM (IC50). This IC50 and that of the molecule before are within 1.5-fold of each other.

In test [1], `CC1(C)[C@@H]2[C@H](C(=O)N[C@H](C=O)C[C@@H]3CCNC3=O)N(C(=O)COc3ccc(Cl)c(Br)c3)C[C@@H]21` [MI-10] gave an IC50 of 51 nM. The IC50 values of the last two molecules are within 1.5-fold of each other.

`CC1(C)[C@@H]2[C@H](C(=O)N[C@H](C=O)C[C@@H]3CCNC3=O)N(C(=O)COc3ccc(Br)cc3Cl)C[C@@H]21` [MI-11] registered an IC50 in test [1] of 13 nM.

As for `CC1(C)[C@@H]2[C@H](C(=O)N[C@H](C=O)C[C@@H]3CCNC3=O)N(C(=O)COc3ccc(Cl)cc3)C[C@@H]21` [MI-12], the EC50 in test [3] turned out to be 7.3 nM; in test [2], 97 nM. In test [1], this molecule came in with an IC50 of 19 nM.

Molecule `CC1(C)[C@@H]2[C@H](C(=O)N[C@H](C=O)C[C@@H]3CCNC3=O)N(C(=O)COc3ccc(Cl)c(Cl)c3)C[C@@H]21` [MI-13] gave an IC50 in test [1] of 12 nM. In other words, the double-digit nanomolar range.

With `CC1(C)[C@@H]2[C@H](C(=O)N[C@H](C=O)C[C@@H]3CCNC3=O)N(C(=O)COc3ccc(Cl)cc3Cl)C[C@@H]21` [MI-14], the EC50 is 0.3 nM in test [3] and 85 nM in test [2]. In test [1], this molecule registered an IC50 of 13 nM.

Molecule `O=C[C@H](C[C@@H]1CCNC1=O)NC(=O)[C@H]1[C@@H]2CCC[C@H]2CN1C(=O)c1cccnc1` [MI-15] displayed an IC50 in test [1] of 749 nM.

Consider `O=C[C@H](C[C@@H]1CCNC1=O)NC(=O)[C@H]1[C@@H]2CCC[C@H]2CN1C(=O)c1cc2ccccc2[nH]1` [MI-16], for which, in test [1], the IC50 was 153 nM.

The molecule `O=C[C@H](C[C@@H]1CCNC1=O)NC(=O)[C@H]1[C@@H]2CCC[C@H]2CN1C(=O)c1cc2ccccn2n1` [MI-17] displayed an IC50 in test [1] of 299 nM.

With `O=C[C@H](C[C@@H]1CCNC1=O)NC(=O)[C@H]1[C@@H]2CCC[C@H]2CN1C(=O)/C=C/c1ccccc1` [MI-18], in test [1], it took 526 nM to reach half-maximal inhibition (IC50).

For the molecule `COc1ccc(/C=C/C(=O)N2C[C@@H]3CCC[C@H]3[C@@H]2C(=O)N[C@H](C=O)C[C@@H]2CCNC2=O)c(OC)c1` [MI-19], in test [1], the IC50 stood at 196 nM.

Regarding `CNc1ccc(/C=C/C(=O)N2C[C@@H]3CCC[C@H]3[C@@H]2C(=O)N[C@H](C=O)C[C@@H]2CCNC2=O)cc1` [MI-20], in test [1], the midpoint of inhibition, the IC50, lay at 375 nM.

In test [1], `O=C[C@H](C[C@@H]1CCNC1=O)NC(=O)[C@H]1[C@@H]2CCC[C@H]2CN1C(=O)CCc1ccc(F)c(F)c1` [MI-22] returned an IC50 of 17 nM.

The molecule `CN(C)c1ccc(CCC(=O)N2C[C@@H]3CCC[C@H]3[C@@H]2C(=O)N[C@H](C=O)C[C@@H]2CCNC2=O)cc1` [MI-24] displayed an IC50 in test [1] of 378 nM.

In test [1], `COc1ccc(OCC(=O)N2C[C@@H]3CCC[C@H]3[C@@H]2C(=O)N[C@H](C=O)C[C@@H]2CCNC2=O)cc1` [MI-25] had an IC50 of 36 nM. This IC50 lies about 10-fold lower than the previous one.

`COc1ccc(OC(C)C(=O)N2C[C@@H]3CCC[C@H]3[C@@H]2C(=O)N[C@H](C=O)C[C@@H]2CCNC2=O)cc1` (stereo partly specified) [MI-26]: the IC50 in test [1] came to 69 nM.

Molecule `O=C[C@H](C[C@@H]1CCNC1=O)NC(=O)[C@H]1[C@@H]2CCC[C@H]2CN1C(=O)COc1ccc2c(c1)OCCO2` [MI-27] showed an IC50 in test [1] of 94 nM. The IC50 values of the last two molecules are within 1.5-fold of each other.

As to `O=C[C@H](C[C@@H]1CCNC1=O)NC(=O)[C@H]1[C@@H]2CCC[C@H]2CN1C(=O)COc1ccc(Cl)cc1` [MI-28], the values for the EC50 in test [3] and in test [2] were 2.2 nM and 42 nM, respectively.

For `O=C[C@H](C[C@@H]1CCNC1=O)NC(=O)[C@H]1[C@@H]2CCC[C@H]2CN1C(=O)COc1ccc(Cl)cc1F` [MI-29], the midpoint of inhibition in test [1], the IC50, lay at 35 nM.

In the case of `O=C[C@H](C[C@@H]1CCNC1=O)NC(=O)[C@H]1[C@@H]2CCC[C@H]2CN1C(=O)COc1ccc(Cl)c(Cl)c1` [MI-31], the EC50 was 0.4 nM in test [3] and 62 nM in test [2]. Also, the IC50 in test [1] was 30 nM.

Regarding `Cc1cc(Cl)ccc1OCC(=O)N1C[C@@H]2CCC[C@H]2[C@@H]1C(=O)N[C@H](C=O)C[C@@H]1CCNC1=O` [MI-32], the IC50 in test [1] is 20 nM. This lies in the double-digit nanomolar range.
